“And” between values parts separate entries of the source, which are not always exact repeats. Equal entries are not always repeated. The source made the active and inactive calls. No rule for the calls is given here.

A word on the TD50: it is the 50% point of the dose-response relation for the toxic effect studied.

In this series the test system is rodent lifetime carcinogenesis bioassay, tumor incidence TD50. The series is described as follows: chronic cancer bioassays in animals – CPDB, compiled studies (AID 1745844).

Turning to `ClC1=C(Cl)[C@]2(Cl)[C@H]3[C@H]([C@@H]4C=C[C@H]3C4)[C@@]1(Cl)C2(Cl)Cl`, the carcinogen call by setting is: (mouse, strain B6C3F1, females, in feed, site: any site (literature study), lesion: several types, types named in the paper, dosed 80 weeks, study length 90 weeks) “negative (inactive)”; (rat, strain Not specified, females, in feed, site: any site (literature study), lesion: one or several types, types not named, dosed 104 weeks, study length 104 weeks) “negative (inactive)”; (rat, strain Not specified, males, in feed, site: any site (literature study), lesion: one or several types, types not named, dosed 104 weeks, study length 104 weeks) “negative (inactive)”; (rat, strain Osborne-Mendel, both sexes, in feed, site: any site (literature study), lesion: several types, types named in the paper, dosed 104 weeks, study length 104 weeks) “positive”; (rat, strain Osborne-Mendel, females, in feed, site: any site (literature study), lesion: several types, types named in the paper, dosed 80 weeks, study length 111 weeks) “negative (inactive)”; (rat, strain Osborne-Mendel, females, in feed, site: any site (literature study), lesion: several types, types named in the paper, dosed 108 weeks, study length 108 weeks) “negative (inactive)”. The carcinogen call is “negative (inactive)” (rat, strain Osborne-Mendel, females, in feed, site: any site (literature study), lesion: several types, types named in the paper, dosed 111 weeks, study length 117 weeks); “negative (inactive)” (rat, strain Osborne-Mendel, females, in feed, site: liver, lesion: one or several types, types not named, dosed 104 weeks, study length 104 weeks); “negative (inactive)” (rat, strain Osborne-Mendel, females, in feed, site: liver, lesion: one or several types, types not named, dosed 108 weeks, study length 108 weeks); “negative (inactive)” (rat, strain Osborne-Mendel, females, in feed, site: liver, lesion: one or several types, types not named, dosed 111 weeks, study length 117 weeks); “negative (inactive)” (rat, strain Osborne-Mendel, males, in feed, site: any site (literature study), lesion: several types, types named in the paper, dosed 124 weeks, study length 134 weeks); “negative (inactive)” (rat, strain Osborne-Mendel, males, in feed, site: liver, lesion: hemangioma, dosed 124 weeks, study length 134 weeks). Moreover, the carcinogen call runs as follows: (rat, strain Osborne-Mendel, males, in feed, site: liver, lesion: one or several types, types not named, dosed 108 weeks, study length 108 weeks) “negative (inactive)”; (rat, strain Sprague-Dawley, females, in feed, site: liver, lesion: one or several types, types not named, dosed 104 weeks, study length 104 weeks) “negative (inactive)”. Further, the TD50 (mouse, strain B6C3F1, females, in feed, site: lung, lesion: alveolar/bronchiolar adenoma + alveolar/bronchiolar carcinoma, dosed 80 weeks, study length 90 weeks) stood at 9.02 mg/kg/day; the TD50 (mouse, strain B6C3F1, males, in feed, site: any site (literature study), lesion: several types, types named in the paper, dosed 80 weeks, study length 90 weeks) amounted to 1.01 mg/kg/day; the TD50 (mouse, strain B6C3F1, males, in feed, site: liver, lesion: hepatocellular adenoma + hepatocellular carcinoma + neoplastic nodule, dosed 80 weeks, study length 90 weeks) was found to be 0.741 mg/kg/day; the TD50 (mouse, strain B6C3F1, males, in feed, site: liver, lesion: hepatocellular carcinoma, dosed 80 weeks, study length 89 weeks) was 0.861 mg/kg/day; the TD50 (mouse, strain B6C3F1, males, in feed, site: liver, lesion: hepatocellular carcinoma, dosed 80 weeks, study length 90 weeks) is 0.741 mg/kg/day; the TD50 (mouse, strain B6C3F1, males, in feed, site: lung, lesion: alveolar/bronchiolar adenoma + alveolar/bronchiolar carcinoma, dosed 80 weeks, study length 90 weeks) was determined as 3.2 mg/kg/day. The TD50 runs as follows: (mouse, strain C3HeB/Fe, both sexes, in feed, site: any site (literature study), lesion: benign tumor, dosed 104 weeks, study length 104 weeks) 4.25 mg/kg/day; (mouse, strain C3HeB/Fe, both sexes, in feed, site: liver, lesion: hepatocellular adenoma, dosed 104 weeks, study length 104 weeks) 4.41 mg/kg/day; (mouse, strain C3HeB/Fe, both sexes, in feed, site: liver, lesion: hepatoma, dosed 104 weeks, study length 104 weeks) 3.45 mg/kg/day; (mouse, strain C3HeB/Fe, both sexes, in feed, site: lung, lesion: carcinoma, dosed 104 weeks, study length 104 weeks) 129 mg/kg/day; (rat, strain Osborne-Mendel, both sexes, in feed, site: lung, lesion: lymphosarcoma, dosed 104 weeks, study length 104 weeks) 42.3 mg/kg/day; (rat, strain Osborne-Mendel, females, in feed, site: adrenal gland, lesion: cortical adenoma, dosed 80 weeks, study length 109 weeks) 3.12 mg/kg/day (inactive). Besides, the TD50 (rat, strain Osborne-Mendel, females, in feed, site: any site (literature study), lesion: one or several types, types not named, dosed 104 weeks, study length 104 weeks) was determined as 1.69 mg/kg/day; the TD50 (rat, strain Osborne-Mendel, females, in feed, site: liver, lesion: hepatocellular adenoma + hepatocellular carcinoma + neoplastic nodule, dosed 80 weeks, study length 111 weeks) is 466 mg/kg/day; the TD50 (rat, strain Osborne-Mendel, females, in feed, site: lymphoreticular system, lesion: one or several types, types not named, dosed 104 weeks, study length 104 weeks) was 4.35 mg/kg/day (inactive); the TD50 (rat, strain Osborne-Mendel, males, in feed, site: any site (literature study), lesion: several types, types named in the paper, dosed 74 weeks, study length 111 weeks) was 16.4 mg/kg/day (inactive); the TD50 (rat, strain Osborne-Mendel, males, in feed, site: any site (literature study), lesion: several types, types named in the paper, dosed 108 weeks, study length 108 weeks) was 4.21 mg/kg/day (inactive).
As to `[O]=[W](=[O])([OH])[OH]`, the carcinogen call runs as follows: (rat, strain Long-Evans BLU:(LE), females, in drinking water, site: any site (literature study), lesion: malignant tumor, dosed 149 weeks, study length 149 weeks) “negative (inactive)”; (rat, strain Long-Evans BLU:(LE), females, in drinking water, site: any site (literature study), lesion: several types, types named in the paper, dosed 149 weeks, study length 149 weeks) “negative (inactive)”. For the same molecule, the TD50 is, setting by setting: (rat, strain Long-Evans BLU:(LE), males, in drinking water, site: any site (literature study), lesion: malignant tumor, dosed 136 weeks, study length 136 weeks) 87.7 mg/kg/day (inactive); (rat, strain Long-Evans BLU:(LE), males, in drinking water, site: any site (literature study), lesion: several types, types named in the paper, dosed 136 weeks, study length 136 weeks) 40.1 mg/kg/day (inactive).
On to `CCN(C#N)N=O`, for which the TD50 by setting is: (rat, strain MRC-Wistar, females, in drinking water, site: any site (literature study), lesion: several types, types named in the paper, dosed 52 weeks, study length 90 weeks) 3.17 mg/kg/day; (rat, strain MRC-Wistar, females, in drinking water, site: respiratory system, lesion: one or several types, types not named, dosed 52 weeks, study length 90 weeks) 2.91 mg/kg/day; (rat, strain MRC-Wistar, males, in drinking water, site: respiratory system, lesion: one or several types, types not named, dosed 52 weeks, study length 90 weeks) 4.99 mg/kg/day.
Turning to `OCc1ccco1`, the carcinogen call (mouse, strain B6C3F1, females, inhaled, site: any site (literature study), lesion: several types, types named in the paper, dosed 104 weeks, study length 104 weeks) is “negative (inactive)” and the carcinogen call (rat, strain Fischer 344, females, inhaled, site: nasal cavity, respiratory epithelium, lateral wall, lesion: adenoma, dosed 105 weeks, study length 105 weeks) was “e”. Besides, the TD50 reads like this: (mouse, strain B6C3F1, females, inhaled, site: lung, lesion: alveolar/bronchiolar adenoma + alveolar/bronchiolar carcinoma, dosed 104 weeks, study length 104 weeks) 41.8 mg/kg/day; (mouse, strain B6C3F1, males, inhaled, site: kidney, lesion: tubule adenoma + tubule carcinoma, dosed 104 weeks, study length 104 weeks) 263 mg/kg/day and 291 mg/kg/day; (mouse, strain B6C3F1, males, inhaled, site: kidney, lesion: tubule adenoma, dosed 104 weeks, study length 104 weeks) 538 mg/kg/day and 492 mg/kg/day; (mouse, strain B6C3F1, males, inhaled, site: kidney, lesion: tubule carcinoma, dosed 104 weeks, study length 104 weeks) 538 mg/kg/day and 744 mg/kg/day; (rat, strain Fischer 344, females, inhaled, site: all sites, lesion: mononuclear-cell leukemia, dosed 105 weeks, study length 105 weeks) 10.1 mg/kg/day; (rat, strain Fischer 344, females, inhaled, site: any site (literature study), lesion: several types, types named in the paper, dosed 105 weeks, study length 105 weeks) 7.57 mg/kg/day. Besides, the TD50 is 27.8 mg/kg/day (rat, strain Fischer 344, females, inhaled, site: clitoral gland, lesion: adenoma + adenoma, bilateral + carcinoma + carcinoma, bilateral, dosed 105 weeks, study length 105 weeks); 35.7 mg/kg/day (rat, strain Fischer 344, females, inhaled, site: clitoral gland, lesion: adenoma + adenoma, bilateral, dosed 105 weeks, study length 105 weeks); 110 mg/kg/day and 161 mg/kg/day (rat, strain Fischer 344, females, inhaled, site: kidney, lesion: tubule adenoma + tubule carcinoma, dosed 105 weeks, study length 105 weeks); 113 mg/kg/day and 108 mg/kg/day (rat, strain Fischer 344, females, inhaled, site: kidney, lesion: tubule adenoma, dosed 105 weeks, study length 105 weeks); 161 mg/kg/day (rat, strain Fischer 344, females, inhaled, site: nasal cavity, respiratory epithelium, lesion: adenoma, dosed 105 weeks, study length 105 weeks); 17.4 mg/kg/day (rat, strain Fischer 344, males, inhaled, site: Zymbal's gland, lesion: adenoma + carcinoma, dosed 102 weeks, study length 105 weeks). Also, the TD50 by setting is: (rat, strain Fischer 344, males, inhaled, site: any site (literature study), lesion: several types, types named in the paper, dosed 102 weeks, study length 105 weeks) 1.46 mg/kg/day; (rat, strain Fischer 344, males, inhaled, site: nasal cavity, respiratory epithelium, lateral wall + nasal cavity, respiratory epithelium, lesion: adenoma + carcinoma + squamous-cell carcinoma, dosed 102 weeks, study length 105 weeks) 9.6 mg/kg/day; (rat, strain Fischer 344, males, inhaled, site: nasal cavity, respiratory epithelium, lesion: squamous-cell carcinoma, dosed 102 weeks, study length 105 weeks) 46.4 mg/kg/day.
`CN(C)CCN(Cc1ccco1)c1ccccn1`: the carcinogen call by setting is: (rat, strain Fischer 344, females, in drinking water, site: liver, lesion: several types, types named in the paper, dosed 94 weeks, study length 130 weeks) “negative (inactive)”; (rat, strain Fischer 344, males, in drinking water, site: liver, lesion: several types, types named in the paper, dosed 94 weeks, study length 115 weeks) “negative (inactive)”. Further, where the note is “rat, strain Fischer 344, females, in drinking water, site: thyroid follicle, lesion: several types, types named in the paper, dosed 94 weeks, study length 130 weeks”, the TD50 is 559 mg/kg/day (inactive).
For the molecule `CN(N=O)C(=O)c1c(N(C)N=O)ncn1C`, the TD50 (rat, strain BD IX, both sexes, by gavage, site: forestomach, lesion: squamous-cell carcinoma, dosed 41 weeks, study length 52 weeks) is 0.183 mg/kg/day.

Source of the values: PubChem BioAssay AID1745844 (Carcinogenic Potency Database (CPDB), 2022).
